Assay results: PubChem BioAssay (NCI)
Values joined by “and” are separate entries in the source; they are usually repeats but may differ in a detail not shown here. Equal entries are not always repeated.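 Results reflect a 48-hour exposure of cells in 96-well plates to compound at five concentrations. Abbreviation: GI50, concentration required for 50% inhibition of growth. The concentration for full growth arrest is given as TGI.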

What was measured:
Experiment in all cases: NCI-60 cell line screen, 48 h
[1] = system: EKVX NSCLC
[2] = system: MCF7 breast
[3] = system: UO-31 renal
[4] = system: SN12C renal
[5] = system: OVCAR-3 ovarian
[6] = system: HOP-92 NSCLC
[7] = system: A498 renal
[8] = system: OVCAR-5 ovarian
[9] = system: NCI-H522 lung
[10] = system: MALME-3M melanoma

SMILES	TGI [1]	TGI [2]	TGI [3]	TGI [4]	TGI [5]	TGI [6]	TGI [7]	TGI [8]	TGI [9]	TGI [10]	GI50 [1]	GI50 [2] [µM]	GI50 [5]	GI50 [7]	GI50 [8]	GI50 [9]	GI50 [4]	GI50 [6]
CN(C)CCNc1ccc(C(=O)NCCCN(C)CCCNC(=O)c2ccc(NCCN(C)C)c3c(=O)c4ccccc4[nH]c23)c2[nH]c3ccccc3c(=O)c12	3.8 µM	0.489 µM	15.8 µM	1.02 µM	7.5 µM	0.616 µM	1.12 µM	1.1 µM	0.0685 µM	0.844 µM								
CCOC(=O)c1cccc(NC(=O)CCl)c1	8.9 µM	6.81 µM	13.7 µM	4.6 µM	4.44 µM	16.9 µM	29.2 µM	16.9 µM	3.49 µM	18.5 µM								
O=C1c2ccccc2C2CNC1(O)c1ccccc12 (stereo unspecified)	> 100 µM	> 100 µM	> 100 µM	> 100 µM	> 100 µM	> 100 µM	> 100 µM	> 100 µM	> 100 µM	> 100 µM								
COc1c2cc([N+](=O)[O-])cc1CNC(=O)CN1CCOCCOCCN(CCOCCOCC1)CC(=O)NC2	> 100 µM	> 100 µM	> 100 µM	> 100 µM	> 100 µM	> 100 µM	> 100 µM	> 100 µM	> 100 µM	> 100 µM								
Clc1ccc2c(SCC3CO3)c3ccccc3nc2c1 (stereo unspecified)	20.4 µM	3.19 µM	3.34 µM	7.35 µM	3.27 µM	5.08 µM	33.9 µM	10.4 µM	5.64 µM	6.39 µM								
CC1=NN(C(=O)CSc2nnc(SCC(=O)N3N=C(C)CC3(O)c3ccccc3)s2)C(O)(c2ccccc2)C1 (stereo unspecified)	> 100 µM	> 100 µM	> 100 µM	> 100 µM	> 100 µM	> 100 µM	> 100 µM	> 100 µM	> 100 µM	> 100 µM								
Cc1ccc(C)n1-c1ccccc1C1SCCCS1	> 100 µM	> 100 µM	> 100 µM	> 100 µM	> 100 µM	> 100 µM	> 100 µM	> 100 µM	> 100 µM	> 100 µM								
O=C1C2CCCCC2C(=O)N1n1c(Cc2ccc(Cl)cc2)n[nH]c1=O (stereo unspecified)	> 100 µM	> 100 µM	> 100 µM	> 100 µM	> 100 µM	> 100 µM	> 100 µM	> 100 µM	> 100 µM	> 100 µM								
O=C(Cc1ccccc1)NCCc1ccc(O)c(O)c1	> 100 µM	> 100 µM	> 100 µM	> 100 µM	> 100 µM	> 100 µM	> 100 µM	> 100 µM	> 100 µM	> 100 µM								
c1ccc(CNC2CC(NCc3ccccn3)CC(NCc3ccccn3)C2)nc1 (stereo unspecified)	14.7 µM and 25 µM and 16.6 µM	6.31 µM and 8.62 µM and 3.65 µM	70.8 µM and > 25 µM and > 100 µM	20.8 µM and 13.6 µM and 17.7 µM	9.72 µM and 12.1 µM and 15.9 µM	9.06 µM and 8.87 µM and 15.2 µM	3.31 µM and 6.25 µM and 3.51 µM	14.4 µM and 25 µM and 8.94 µM	6.36 µM and 12.2 µM and 4.68 µM	10.4 µM and 8.6 µM and 15.8 µM	3.87 µM and 7.93 µM and 3.88 µM	1.89	4.59 µM	2.06 µM	3.66 µM and 14.4 µM and 2.89 µM	2.16 µM		
CN1C/C(=C\c2cccs2)C2=NC(=S)NC(c3cccs3)C2C1 (stereo unspecified)	> 100 µM	> 100 µM	> 100 µM	> 100 µM	> 100 µM	> 100 µM	> 100 µM	> 100 µM	> 100 µM	> 100 µM								
O=C1Oc2ccccc2C(=O)/C1=C/N1C(=O)N/C(=C\c2ccccc2O)C1=O	> 100 µM	> 100 µM	> 100 µM	> 100 µM	> 100 µM	> 91 µM	> 100 µM	> 100 µM	> 100 µM	> 100 µM								
CC(C)(C)OC(=O)CN1CCNCCNCC1	> 100 µM	> 100 µM	> 100 µM	> 100 µM	> 100 µM	> 100 µM	> 100 µM	> 100 µM	> 100 µM	> 100 µM								
Cc1nc2c(=S)[nH]ncc2[nH]1	> 100 µM	> 100 µM	> 100 µM	> 100 µM	> 100 µM	> 100 µM	> 100 µM	> 100 µM	> 100 µM	> 100 µM								
O=c1[nH]c(=O)n(C2CC(O)C(CO)O2)cc1I (stereo unspecified)	> 100 µM	> 100 µM	> 100 µM	> 100 µM	> 100 µM	> 100 µM	> 100 µM	> 100 µM	> 100 µM	> 100 µM								
CNC(=O)c1ccccc1-[s+]1c2ccccc2c(=O)n1C (stereo unspecified)	> 100 µM	> 100 µM	> 100 µM	> 100 µM	> 100 µM	> 100 µM	> 100 µM	> 100 µM	> 100 µM	> 100 µM								

SMILES	TGI [1]	TGI [2]	TGI [3]	TGI [4]	TGI [5]	TGI [6]	TGI [7]	TGI [8]	TGI [9]	TGI [10]	GI50 [1]	GI50 [2] [µM]	GI50 [5]	GI50 [7]	GI50 [8]	GI50 [9]	GI50 [4]	GI50 [6]
O=c1cnn(C/C=C\CO)c(=O)[nH]1	> 100 µM	> 100 µM	> 100 µM	> 100 µM	> 100 µM	> 100 µM	> 100 µM	> 100 µM	> 100 µM	> 100 µM								
O=C(CSCC(=O)N/N=C/c1cc(I)cc(I)c1O)N/N=C/c1cc(I)cc(I)c1O	79.2 µM	70.7 µM	44.5 µM	> 100 µM	> 100 µM	> 100 µM	27.9 µM	82.5 µM	35 µM	44.3 µM								
CCc1nn(CN2CCN(C)CC2)c(=S)n1/N=C\c1ccc(-c2ccc([N+](=O)[O-])cc2)o1	> 100 µM	> 100 µM	> 100 µM	> 100 µM	> 100 µM	> 100 µM	54.7 µM	> 100 µM	> 100 µM	> 100 µM								
COc1cc(/C=C2/SC(c3ccccc3)N(c3ccc(NC(C)=O)cc3)C2=O)cc(OC)c1OC (stereo unspecified)	> 100 µM	> 100 µM	> 100 µM	> 100 µM	> 100 µM	> 100 µM	> 100 µM	> 100 µM	> 100 µM	> 100 µM								
C=C(C)[C@@H]1CC[C@]2(C(=O)O)CC[C@]3(C)[C@H](CC[C@@H]4[C@@]5(C)CC(=O)C(C)(C)[C@@H]5CC[C@]43C)[C@@H]12	> 25 µM	> 25 µM	16.4 µM	13.6 µM	21.4 µM	> 25 µM	17.2 µM	> 25 µM	19.7 µM	> 25 µM								
O=C1c2c(F)c(F)c(F)c(F)c2SC2=NCCN12	41.4 µM	23.5 µM	22.5 µM	21.8 µM	9.21 µM	9.19 µM	32.9 µM	29.2 µM	10.1 µM	12.8 µM								
O=C1NC(N/N=C\C(O)C(O)C(O)CO)=N/C1=C/c1ccccc1 (stereo unspecified)	> 100 µM	> 100 µM	> 100 µM	> 100 µM	> 100 µM	> 100 µM	> 100 µM	> 100 µM	> 100 µM	> 100 µM			> 100 µM and 47.6 µM	> 100 µM and 39.3 µM		> 100 µM and 46.5 µM	> 100 µM and 46.8 µM	> 100 µM and 45 µM
Nc1nc(Cl)cc(NCC2(O)CC(CO)C2)n1 (stereo unspecified)	> 100 µM	> 100 µM	> 100 µM	> 100 µM	> 100 µM	> 100 µM	> 100 µM	> 100 µM	> 100 µM	> 100 µM								
CCCCNC1CCC2(SCCS2)c2[nH]c3ccccc3c21 (stereo unspecified)	> 100 µM	13.2 µM	> 89.4 µM	> 100 µM	46.7 µM	> 81.9 µM	76.7 µM	> 100 µM	23 µM	33.8 µM								
CC[C@@]1(O)C(=O)OCc2c1cc1n(c2=O)Cc2c-1nc1ccccc1c2/C=N\NC(=O)C(N)CC(C)C (stereo partly specified)	> 100 µM	> 100 µM	0.201 µM	1.61 µM	2.3 µM	5.35 µM	0.263 µM	> 68.6 µM	1.6 µM	7.31 µM								
c1ccc(C2=NC3(CCCCC3)N(c3nc4ccccc4s3)N2)nc1	> 100 µM	> 100 µM	> 100 µM	69.9 µM	51.2 µM	> 100 µM	> 100 µM	> 100 µM	> 100 µM	> 100 µM								
COC(=O)c1c2c(cc3c1CC1(Cc4ccccc4C1=O)C3)CCC2 (stereo unspecified)	> 100 µM	> 100 µM	> 100 µM	> 100 µM	> 100 µM	> 100 µM	> 100 µM	> 100 µM	> 100 µM	79.9 µM								
CC[n+]1cnc(N)c2c(-c3ccc(Cl)cc3)cn(-c3ccc(C)cc3)c21	30.8 µM	3.35 µM	21.5 µM	25.2 µM	21.6 µM	24.7 µM	24 µM	29.7 µM	31.2 µM	25.5 µM								
O=c1c2ccccc2oc2nc3n(c(=O)c12)CCCS3	> 100 µM	> 100 µM	29.2 µM	> 100 µM	> 100 µM	> 100 µM	> 100 µM	> 100 µM	> 100 µM	> 100 µM								
CCOc1cc2c(cc1O)/C(=N\N)C[C@@H]1[C@@H]2CC[C@]2(C)[C@@H](O)CC[C@@H]12	> 100 µM	> 100 µM	> 100 µM	> 42.4 µM	12.4 µM	49.9 µM	> 100 µM	> 86 µM	5.58 µM	20.8 µM								
